The term EC50 denotes the concentration at which the effect is half-maximal.

The target in the experiment is T1, RIPK1 (receptor interacting serine/threonine-protein kinase 1) (Homo sapiens, UniProt Q13546).
T1 construct: endogenous untagged full-length protein in unprocessed human whole blood of healthy donors
T1 sequence (Q13546 1-671): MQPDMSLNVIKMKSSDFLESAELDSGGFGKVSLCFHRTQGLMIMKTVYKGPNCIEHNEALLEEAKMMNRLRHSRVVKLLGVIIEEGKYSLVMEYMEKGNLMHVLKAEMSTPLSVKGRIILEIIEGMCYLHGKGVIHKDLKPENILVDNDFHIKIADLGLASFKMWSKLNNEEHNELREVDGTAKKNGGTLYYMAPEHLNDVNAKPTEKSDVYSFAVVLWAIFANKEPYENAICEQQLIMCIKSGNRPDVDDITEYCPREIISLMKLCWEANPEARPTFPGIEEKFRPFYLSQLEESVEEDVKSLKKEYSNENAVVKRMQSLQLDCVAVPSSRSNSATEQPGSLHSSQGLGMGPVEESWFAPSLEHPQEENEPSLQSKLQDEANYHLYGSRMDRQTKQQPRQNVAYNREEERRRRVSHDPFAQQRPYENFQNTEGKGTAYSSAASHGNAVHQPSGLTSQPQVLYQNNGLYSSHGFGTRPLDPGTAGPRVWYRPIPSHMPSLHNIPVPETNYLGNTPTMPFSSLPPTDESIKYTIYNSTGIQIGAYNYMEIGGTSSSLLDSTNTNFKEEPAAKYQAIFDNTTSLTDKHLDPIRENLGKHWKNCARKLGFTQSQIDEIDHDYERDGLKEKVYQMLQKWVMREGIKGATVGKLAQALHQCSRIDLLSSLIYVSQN
Kind of experiment: MSD TEAR1 occupancy immunoassay, human whole blood. Format: cell-based. To be noted: 1 h at 37 °C with compound, no heating; N=1 donor; unreliable. The text has this:
MSD TEAR1 occupancy immunoassay, human whole blood on RIPK1 (receptor interacting serine/threonine-protein kinase 1)

`COc1ccc(-n2c(SCC#N)nc3sc4c(c3c2=O)CCCC4)cc1` [necrostatin 5]: the half-maximal effective concentration (EC50) was found to be 340 nM.

Values taken from article doi:10.1101/2023.10.02.560523v1, “Quantitative target engagement of RIPK1 in human whole blood via the cellular thermal shift assay for potential pre-clinical and clinical applications” (biorxiv, 2023).
